Source: publication PMC4139024, “Synthesis and In Vitro Inhibition Effect of New Pyrido[2,3-d]pyrimidine Derivatives on Erythrocyte Carbonic Anhydrase I and II” (BioMed Research International, 2014)

Legend:
[1] = target: T1, human carbonic anhydrase I (hCA I) (Homo sapiens, UniProt P00915); experiment: hCA I inhibition assay (Maren method, CO2 hydration); type: biochemical; conditions: purified human erythrocyte hCA I, CO2 as substrate
T1 construct: from tissue
Experimental: (§1) Blood samples (25 mL) were taken from healthy human volunteers. They were anticoagulated with acid-citrate-dextrose and centrifuged at 2000 g for 20 min at 4°C and the supernatant was removed. The packed erythrocytes were washed three times with 0.9% NaCl and then haemolysed in cold water. The ghosts and any intact cells were removed by centrifugation at 2000 g for 25 min at 4°C, and the pH of the haemolysate was adjusted to pH 8.5 with solid Tris-base. The 25 mL haemolysate was applied to an affinity column containing L-tyrosine-sulfonamide-sepharose-4B [21] equilibrated with 25 mM Tris-HCl/0.1 M Na2SO4 (pH 8.5). The affinity gel was washed with 50 mL of 25 mM Tris-HCl/22 mM Na2SO4 (pH 8.5). The hCA isozymes were then eluted with 0.1 M NaCl/25 mM Na2HPO4 (pH 6.3) and 0.1 M CH3COONa/0.5 M NaClO4 (pH 5.6), which recovered hCA I and hCA II, respectively. Fractions of 3 mL were collected and their absorbance was measured at 280 nm.
(§2) CA activity was measured by the Maren method which is based on determination of the time required for the pH to decrease from 10.0 to 7.4 due to CO2 hydration. The assay solution was 0.5 M Na2CO3/0.1 M NaHCO3 (pH 10.0) and Phenol Red was added as the pH indicator. CO2-hydratase activity (enzyme units (EU)) was calculated by using the equation t 0 − t c/t c, where t 0 and t c are the times for pH change of the nonenzymatic and the enzymatic reactions, respectively.
(§3) For the inhibition studies of indolylchalcone and pyrido[2,3-d]pyrimidine derivatives, different concentrations of these compounds were added to the enzyme. Activity percentage values of CA for different concentrations of each pyrimidine derivatives were determined by regression analysis using Microsoft Office 2000 Excel. CA enzyme activity without these compounds was accepted as 100% activity.

[2] = target: T2, human carbonic anhydrase II (hCA II) (Homo sapiens, UniProt P00918); experiment: hCA II inhibition assay (Maren method, CO2 hydration); type: biochemical; conditions: purified human erythrocyte hCA II, CO2 as substrate
T2 construct: from tissue
Experimental: as §1, §2, §3

T1 sequence (P00915 whole entry): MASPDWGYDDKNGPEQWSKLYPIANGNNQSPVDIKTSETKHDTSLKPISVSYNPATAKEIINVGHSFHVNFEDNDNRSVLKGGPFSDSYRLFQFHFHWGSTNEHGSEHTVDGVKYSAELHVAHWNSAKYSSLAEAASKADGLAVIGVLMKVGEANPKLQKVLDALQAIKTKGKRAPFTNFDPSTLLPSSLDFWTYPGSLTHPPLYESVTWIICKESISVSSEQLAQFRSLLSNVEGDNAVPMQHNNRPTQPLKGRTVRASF

Row | melting point [°C] | Compound | IC50 [1] [µM] | IC50 [2] [µM]
1 | 254 | COc1ccc(C(=O)/C=C/c2cn(C)c3ccccc23)cc1 [Compound 5b, (E)-1-(4-Methoxyphenyl)-3-(1-methyl-1H-indol-3-yl) prop-2-en-1-one] | 7.42 | 10.3
2 | 267 | Cn1cc(/C=C/C(=O)c2cccc([N+](=O)[O-])c2)c2ccccc21 [Compound 5g, (E)-3-(1-Methyl-1H-indol-3-yl)-1-(3-nitrophenyl)prop-2-en-1-one] | 8.38 | 7.22
3 | 271 | COc1ccc(C(=O)/C=C/c2cn(C)c3ccccc23)cc1OC [Compound 5a, (E)-1-(3,4-Dimethoxyphenyl)-3-(1-methyl-1H-indol-3-yl) prop-2-en-1-one] | 8.34 | 8.88
4 | 240 | Cc1ccc(C(=O)/C=C/c2cn(C)c3ccccc23)cc1 [Compound 5c, (E)-3-(1-Methyl-1H-indol-3-yl)-1-p-tolylprop-2-en-1-One] | 13.1 | 12.3
5 | 248 | Cn1cc(/C=C/C(=O)c2ccc(Cl)cc2)c2ccccc21 [Compound 5d, (E)-1-(4-Chlorophenyl)-3-(1-methyl-1H-indol-3-yl)prop-2-en-1-one] | 8.2 | 8.26
6 | 399 to 400 | Cc1ccc(-c2cc(-c3cn(C)c4ccccc34)c3c(=O)[nH]c(=O)n(C)c3n2)cc1 [Compound 7b, 1-Methyl-5-(1-methyl-1H-indol-3-yl)-7-p-tolylpyrido[2,3-d]pyrimidine-2,4(1H,3H)-dione] | 11.6 | 12.1
7 | 278 | Cn1cc(/C=C/C(=O)c2ccc([N+](=O)[O-])cc2)c2ccccc21 [Compound 5f, (E)-3-(1-Methyl-1H-indol-3-yl)-1-(4-nitrophenyl)prop-2-en-1-one] | 10.9 | 9.31

Continued, molecule first:

Row | Compound | melting point [°C] | IC50 [1] [µM] | IC50 [2] [µM]
8 | Cn1cc(-c2cc(-c3ccc(Cl)cc3)nc3c2c(=O)[nH]c(=O)n3C)c2ccccc21 [Compound 7c, 7-(4-Chlorophenyl)-1-methyl-5-(1-methyl-1H-indol-3-yl)pyrido[2,3-d]pyrimidine-2,4(1H,3H)-dione] | 385 to 389 | 21.1 | 31.1
9 | Cn1c(=O)c2c(-c3cn(C)c4ccccc34)cc(-c3ccc(Cl)cc3)nc2n(C)c1=O [Compound 7h, 7-(4-Chlorophenyl)-1,3-dimethyl-5-(1-methyl-1H-indol-3-yl)pyrido[2,3-d]pyrimidine 2,4(1H,3H)-dione] | 358 to 359 | 12.4 | 24.7
10 | Cn1cc(/C=C/C(=O)c2ccccc2)c2ccccc21 [Compound 5e, (E)-3-(1-Methyl-1H-indol-3-yl)-1-phenylprop-2-en-1-one] |  | 12.8 | 9.15
11 | COc1ccc(-c2cc(-c3cn(C)c4ccccc34)c3c(=O)n(C)c(=O)n(C)c3n2)cc1 [Compound 7f, 7-(4-Methoxyphenyl)-1,3-dimethyl-5-(1-methyl-1H-indol-3-yl)pyrido[2,3-d]pyrimidine-2,4(1H,3H)-dione] | 335.7 to 336 | 26.2 | 25.4
12 | Cn1c(=O)c2c(-c3cn(C)c4ccccc34)cc(-c3ccccc3)nc2n(C)c1=O [Compound 7i, 1,3-Dimethyl-5-(1-methyl-1H-indol-3-yl)-7-phenylpyrido[2,3-d]pyrimidine-2,4(1H,3H)-dione] | 320 | 8.72 | 8.14
13 | Cc1ccc(-c2cc(-c3cn(C)c4ccccc34)c3c(=O)n(C)c(=O)n(C)c3n2)cc1 [Compound 7g, 1,3-Dimethyl-5-(1-methyl-1H-indol-3-yl)-7-p-tolylpyrido[2,3-d]pyrimidine-2,4(1H,3H)-dione] | 340 to 341 | 7.61 | 7.57
14 | Cn1cc(-c2cc(-c3cccc([N+](=O)[O-])c3)nc3c2c(=O)[nH]c(=O)n3C)c2ccccc21 [Compound 7d, 1-Methyl-5-(1-methyl-1H-indol-3-yl)-7-(3-nitrophenyl)pyrido[2,3-d]pyrimidine-2,4(1H,3H)-dione] | 397 | 12.1 | 13.7
15 | Cn1c(=O)c2c(-c3cn(C)c4ccccc34)cc(-c3cccc([N+](=O)[O-])c3)nc2n(C)c1=O [Compound 7k, 1,3-Dimethyl-5-(1-methyl-1H-indol-3-yl)-7-(3-nitrophenyl)pyrido[2,3-d]pyrimidine-2,4(1H,3H)-dione] | 349 to 350 | 22.3 | 26.7
16 | COc1ccc(-c2cc(-c3cn(C)c4ccccc34)c3c(=O)n(C)c(=O)n(C)c3n2)cc1OC [Compound 7e, 7-(3,4-Dimethoxyphenyl)-1,3-dimethyl-5-(1-methyl-1H-indol-3-yl)pyrido[2,3-d]pyrimidine-2,4(1H,3H)-dione] | 340 to 341 | 6.79 | 8.06
17 | COc1ccc(-c2cc(-c3cn(C)c4ccccc34)c3c(=O)[nH]c(=O)n(C)c3n2)cc1OC [Compound 7a, 7-(3,4-Dimethoxyphenyl)-1-methyl-5-(1-methyl-1H-indol-3-yl)pyrido[2,3-d]pyrimidine-2,4(1H,3H)-dione] | 333 to 334 | 16.3 | 19.4
18 | Cn1c(=O)c2c(-c3cn(C)c4ccccc34)cc(-c3ccc([N+](=O)[O-])cc3)nc2n(C)c1=O [Compound 7j, 1,3-Dimethyl-5-(1-methyl-1H-indol-3-yl)-7-(4-nitrophenyl)pyrido[2,3-d]pyrimidine-2,4(1H,3H)-dione] | 347 to 349 | 10.2 | 9.56
